Assay results reported in patent publication US9765074B2, “Inhibitors of the renal outer medullary potassium channel” (Merck Sharp & Dohme Corp., priority 2013, dated 2017).

Molecular target: T1, hROMK (hKir1.1) (Homo sapiens, UniProt P48048)
T1 construct: expressed in transfected cells
T1 sequence (P48048 1-391): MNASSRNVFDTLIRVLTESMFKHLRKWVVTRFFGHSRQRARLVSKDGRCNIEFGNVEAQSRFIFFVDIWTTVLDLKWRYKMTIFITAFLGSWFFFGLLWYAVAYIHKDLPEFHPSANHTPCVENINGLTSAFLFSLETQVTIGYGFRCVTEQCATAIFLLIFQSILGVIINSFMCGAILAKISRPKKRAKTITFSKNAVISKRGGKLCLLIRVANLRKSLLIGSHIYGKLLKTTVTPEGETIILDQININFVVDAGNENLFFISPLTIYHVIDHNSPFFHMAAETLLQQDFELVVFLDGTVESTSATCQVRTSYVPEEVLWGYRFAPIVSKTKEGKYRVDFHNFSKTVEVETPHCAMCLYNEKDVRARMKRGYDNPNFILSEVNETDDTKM
Assay: Thallium Flux Assay (ROMK channel functional thallium flux, FLIPR-Tetra)
Type: cell-based
Conditions: HEK293 cells stably expressing hROMK (hKir1.1); 30 min compound incubation
How it was run: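 Thallium flux read by FluxOR fluorescence ([…]) for ~10 min after adding 3 mM Tl+/0.3 mM K+ final. Stable HEK-hKir1.1 cells were dye-loaded 90 min, exposed to compound 30 min at room temperature in ouabain/probenecid buffer; IC50 relative to a 3 μM control inhibitor.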

Structure (SMILES) | IC50 [nM]
CC1=C(N2CCC3(CCN(C[C@@H](O)c4ccc(-n5cnnn5)nn4)CC3)C2=O)COC1=O [Example 33, 8-{(2R)-2-hydroxy-2-[6-(1H-tetrazol-1-yl)pyridazin-3-yl]ethyl}-2-(4-methyl-5-oxo-2,5-dihydrofuran-3-yl)-1-oxo-2-aza-8-azoniaspiro[4.5]decane] | 20
CC1=C(N2CCC3(CC4CCC(C3)N4C[C@@H](O)c3ccc(-n4cnnn4)cn3)C2=O)COC1=O (stereo partly drawn) [Example 46, (1R,5R)-8-{(2R)-2-hydroxy-2-[5-(1H-tetrazol-1-yl)pyridin-2-yl]ethyl}-1′-(4-methyl-5-oxo-2,5-dihydrofuran-3-yl)-2′-oxospiro[8-azoniabicyclo[3.2.1]octane-3,3′-pyrrolidine]] | 20
O=C1C=C(N2C=CC3(CCN(C[C@@H](O)c4ccc(-n5cnnn5)nc4)CC3)C2=O)CO1 [Example 155, 8-{(2S)-2-hydroxy-2-[6-(1H-tetrazol-1-yl)pyridin-3-yl]ethyl}-1-oxo-2-(5-oxo-2,5-dihydrofuran-3-yl)-2-aza-8-azoniaspiro[4.5]dec-3-ene] | 60
CC1=C(N2CCC3(CCN(C[C@@H](O)c4cccc(-n5cnnn5)c4)CC3)C2=O)COC1=O [Example 62, 8-{(2S)-2-hydroxy-2-[3-(1H-tetrazol-1-yl)phenyl]ethyl}-2-(4-methyl-5-oxo-2,5-dihydrofuran-3-yl)-1-oxo-2-aza-8-azoniaspiro[4.5]decane] | 40

Continued by falling IC50, values first:

IC50 [nM] | Structure (SMILES)
20 | CC1=C(N2CCC3(CCN(C[C@@H](O)c4cc(C)c(-n5cnnn5)nn4)CC3)C2=O)COC1=O [Example 127, 8-{(2R)-2-hydroxy-2-[5-methyl-6-(1H-tetrazol-1-yl)pyridazin-3-yl]ethyl}-2-(4-methyl-5-oxo-2,5-dihydrofuran-3-yl)-1-oxo-2-aza-8-azoniaspiro[4.5]decane]
10 | CC1=C(N2CCC3(CCN(C[C@H](O)c4ccc(-n5cnnn5)nc4)CC3F)C2=O)COC1=O (single isomer, unassigned) [Example 194]
